Measured values from patent publication US20230121179A1, “SKIN BARRIER FUNCTION ENHANCER” (Shiseido Company, Ltd., priority 2020, published 2023).
Where “and” joins values, the source holds several entries; their conditions need not be identical. Identical values can stand only once.

Tests used:
[1] = Absorption and emission spectra of wavelength conversion substances; format: physicochemical
Description: (§1) Lumate G is a zinc oxide phosphor obtained by doping ZnO with a sulfur-containing compound and then firing as described in International Patent Publication No. 2018/004006, the absorption spectrum having a peak wavelength at 365 nm and the emission spectrum having a peak wavelength at 510 nm. • (4) Magnesium titanate phosphor Lumate R by Sakai Chemical Industry Co., Ltd. was used. Lumate R is a magnesium titanate phosphor obtained by doping MgTiO3 with manganese, the absorption spectrum having a peak wavelength at 365 nm and the emission spectrum having peak wavelengths in the range of 660 to 680 nm. • The wavelength conversion substances of (1) and (2) were dissolved in water to prepare solutions at concentrations of 1% and 5%. • The wavelength conversion substances of (3) and (4) were dispersed in alcohol to prepare 5% and 10% dispersions.

LOR = test: Microarray gene expression in keratinocytes after UV irradiation through wavelength conversion substance; format: cell-based; set-up: key: O represents the gene whose expression is significantly changed; X represents the gene whose expression is not changed; details: Normal Human Epidermal Keratinocytes, UV 100 mJ/cm^2 through wavelength conversion substance solution, no direct contact, 24 h incubation
Description: as §1
(§2) Cell samples were prepared in the following manner. • 1. Human human skin keratinocytes (Normal Human Epidermal Keratinocytes, PromoCell) were used. A cell suspension (1 mL) stored with liquid nitrogen was placed in a hot water bath (37° C.) and thawed until small ice pellets remained, and then diluted with 9 mL of warm KGM medium. • 2. The diluted suspension was gently mixed and transferred to a T75 flask, and incubated overnight at 37° C. • 3. On the following day, the medium was exchanged with 10 mL of fresh medium. • 4. The medium was periodically exchanged (once every 2 - 3 days), while continuing growth of the cells. During this time, a microscope was used to observe the cells and to confirm that the cells had proliferated with the proper form. • 5. Once the cells reached approximately 80% confluence, they were subcultured. • 6. Subculturing of the cells was carried out by rinsing and aspirating once in 10 mL of warm PBS. • 7. 5 mL of warm trypsin was added to the T75 flask to cover the bottom of the flask with the trypsin solution, and the mixture was aspirated after standing for 1 minute at room temperature. • 8. The flask was set in an oven at 37° C. for 5 minutes (maximum) for keratinocytes. A microscope was used to observe the cells, confirming that they were small and elliptical. • 9. The sides of the T75 flask were then lightly tapped to free the cells. A microscope was used to observe the cells and confirm that they were freely moving. • 10. The keratinocytes were resuspended in 5 mL of warm trypsin neutralizing solution, transferred to a sterilized 50 mL Falcon tube. The flask was further rinsed with 5 mL of warm FGM and added to the Falcon tube, to ensure transfer of all of the cells. • 11.. The cells were centrifuged at […] for 5 minutes (4° C.), and the supernatant was carefully removed while avoiding disturbing the cell pellet. • 12. The keratinocytes were resuspended in KGM at a concentration of 2 × 10^4 cells/well (500 µL), and plated in collagen coated glass bottom 4-well chamber slide. • 13. The medium was replaced every two or three days, and cells were proliferated until they reached 60 to 70% confluence (differing for the type of experiment). • 14. At 24 hours before irradiation, the medium was changed to non-supplemented medium.
(§3) • 1. At least 30 minutes prior to irradiation, the power source of a solar simulator was activated to warm up the lamp. The solar simulator used was a UG11 filter. A UG11 filter is a filter that allows passage of UVB alone while cutting light of other wavelengths. […] The temperature control plate was turned on and set to 33° C. • 3. The cells prepared in Experiment 1-2 were rinsed once with warm PBS. • 4. A 0.5 mL portion of warmed Martinez solution (145 mM NaCl, 5.5 mM KC1, 1.2 mM MgCl2·6H2O, 1.2 mM NaH2PO4·2H2O, 7.5 mM HEPES, 1 mM CaCl2 and 10 mM D-glucose) was added to each well. • 5. […] The irradiation was carried out to a total radiation dose of 100 mJ/cm^2. […]

SMPD1 = test: as above; format: cell-based; set-up: key: O represents the gene whose expression is significantly changed; X represents the gene whose expression is not changed; details: Normal Human Epidermal Keratinocytes, UV 100 mJ/cm^2 through wavelength conversion substance solution, no direct contact, 24 h incubation
Description: as §1, §2, §3

TGase1 = test: as above; format: cell-based; set-up: key: O represents the gene whose expression is significantly changed; X represents the gene whose expression is not changed; details: Normal Human Epidermal Keratinocytes, UV 100 mJ/cm^2 through wavelength conversion substance solution, no direct contact, 24 h incubation
Description: as §1, §2, §3

INV = test: as above; format: cell-based; set-up: key: O represents the gene whose expression is significantly changed; X represents the gene whose expression is not changed; details: Normal Human Epidermal Keratinocytes, UV 100 mJ/cm^2 through wavelength conversion substance solution, no direct contact, 24 h incubation
Description: as §1, §2, §3

FLG = test: as above; format: cell-based; set-up: key: O represents the gene whose expression is significantly changed; X represents the gene whose expression is not changed; details: Normal Human Epidermal Keratinocytes, UV 100 mJ/cm^2 through wavelength conversion substance solution, no direct contact, 24 h incubation
Description: as §1, §2, §3

CASP14 = test: as above; format: cell-based; set-up: key: O represents the gene whose expression is significantly changed; X represents the gene whose expression is not changed; details: Normal Human Epidermal Keratinocytes, UV 100 mJ/cm^2 through wavelength conversion substance solution, no direct contact, 24 h incubation
Description: as §1, §2, §3

CDSN = test: as above; format: cell-based; set-up: key: O represents the gene whose expression is significantly changed; X represents the gene whose expression is not changed; details: Normal Human Epidermal Keratinocytes, UV 100 mJ/cm^2 through wavelength conversion substance solution, no direct contact, 24 h incubation
Description: as §1, §2, §3

Compound | absorption spectrum peak wavelength [1] [nm] | emission spectrum peak wavelength [1] | LOR gene expression change (LOR) | SMPD1 gene expression change (SMPD1) | TGase1 gene expression change (TGase1) | INV gene expression change (INV) | FLG gene expression change (FLG) | CASP14 gene expression change (CASP14) | CDSN gene expression change (CDSN)
Cc1cc2nc3c(=O)[nH]c(=O)nc-3n(C[C@H](O)[C@H](O)[C@H](O)CO)c2cc1C [Vitamin B2, Riboflavin, reference compound] | 445 | 530 nm | X | O | O | O | O | O | O
C-phycocyanin [Lina Blue] | 350 | 640 nm and 700 nm | O | O | O | O | O | O | O
